What all share (assay type): biochemical
For experiment [1], the target named is T1, Human recombinant PDE10A (hPDE10A) (Homo sapiens, UniProt Q9Y233).
T1 construct: His tag (inferred from metal chelate purification); made in house; host or cells: Sf9 insect cells (baculovirus)
Nature of the experiment: In vitro assay PDE10A, human clone (SPA, 3H-cAMP hydrolysis). A digest of the protocol: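 Hydrolysis of 3H-cAMP (60 nM cAMP, 0.008 μCi tracer) proceeded for 60 min at room temperature, with the product detected by SPA bead scintillation counting. The enzyme was hPDE10A from baculovirus-infected Sf9 cells in Tris pH 7.8 buffer with MgCl2 and EGTA, and compounds were at 1% DMSO final. Blanks lacked enzyme.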

The target of experiment [2] is T2, Human recombinant PDE3A (hPDE3A) (Homo sapiens, UniProt Q14432).
T2 construct: purchased Scottish Biomedical; host or cells: Sf9 insect cells
The experiment is described as follows: In vitro assay PDE3A (SPA, 3H-cAMP hydrolysis).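 For all read-outs here: the method names PDE3A and the table heading PDE3B.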 The note with it: for IC50: hPDE3B pIC50, read-out: pIC50 (converted); for Emax: read-out: hPDE3B Emax, read-out: Emax. A digest of the protocol: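 Radiometric SPA measuring [3H]-cAMP hydrolysis (0.4 μM cAMP, 2.4 μCi/ml) over 60 min at room temperature, in Tris pH 7.8 buffer with MgCl2 and EGTA, 1% DMSO. Enzyme: recombinant human brain PDE3A expressed in Sf9 cells, used as partially purified lysate. Counts compared with enzyme-free blanks and vehicle controls.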

Experiment [3] has as its target T3, Human recombinant PDE2A (hPDE2A) (Homo sapiens, UniProt O00408).
T3 construct: His tag (inferred from metal chelate purification); made in house; host or cells: Sf9 insect cells (baculovirus)
The experiment is described as follows: In vitro assay PDE2A (SPA, 3H-cGMP hydrolysis). The note with it: for Emax: read-out: hPDE2A Emax.

Where [4] appears, read: human clone by default (no (r) mark), read-out: hPDE10A2 or rPDE10A2 Emax.
Setting [5] is: human clone by default (no (r) mark), read-out: hPDE10A2 or rPDE10A2 pIC50 (converted).
Setting [6] is: read-out: hPDE2A pIC50 (converted).
Where [7] appears, read: human clone (h), default, read-out: hPDE10A2 Emax.
Where [8] appears, read: human clone (h), default, read-out: hPDE10A2 pIC50 (converted).
The mark [9] stands for this setting: human recombinant PDE2A, 10 μM cGMP substrate, read-out: hPDE2A pIC50 (converted).
[10] abbreviates: hPDE2A pIC50, human recombinant PDE2A, 10 μM cGMP substrate.
[11] abbreviates: human clone by default (no (r) mark).

Read-outs that look alike come from different tables or passages of the source.

Usually Emax stands for the size of the effect at its maximum, as opposed to the concentration needed.

T3 sequence (O00408 whole entry): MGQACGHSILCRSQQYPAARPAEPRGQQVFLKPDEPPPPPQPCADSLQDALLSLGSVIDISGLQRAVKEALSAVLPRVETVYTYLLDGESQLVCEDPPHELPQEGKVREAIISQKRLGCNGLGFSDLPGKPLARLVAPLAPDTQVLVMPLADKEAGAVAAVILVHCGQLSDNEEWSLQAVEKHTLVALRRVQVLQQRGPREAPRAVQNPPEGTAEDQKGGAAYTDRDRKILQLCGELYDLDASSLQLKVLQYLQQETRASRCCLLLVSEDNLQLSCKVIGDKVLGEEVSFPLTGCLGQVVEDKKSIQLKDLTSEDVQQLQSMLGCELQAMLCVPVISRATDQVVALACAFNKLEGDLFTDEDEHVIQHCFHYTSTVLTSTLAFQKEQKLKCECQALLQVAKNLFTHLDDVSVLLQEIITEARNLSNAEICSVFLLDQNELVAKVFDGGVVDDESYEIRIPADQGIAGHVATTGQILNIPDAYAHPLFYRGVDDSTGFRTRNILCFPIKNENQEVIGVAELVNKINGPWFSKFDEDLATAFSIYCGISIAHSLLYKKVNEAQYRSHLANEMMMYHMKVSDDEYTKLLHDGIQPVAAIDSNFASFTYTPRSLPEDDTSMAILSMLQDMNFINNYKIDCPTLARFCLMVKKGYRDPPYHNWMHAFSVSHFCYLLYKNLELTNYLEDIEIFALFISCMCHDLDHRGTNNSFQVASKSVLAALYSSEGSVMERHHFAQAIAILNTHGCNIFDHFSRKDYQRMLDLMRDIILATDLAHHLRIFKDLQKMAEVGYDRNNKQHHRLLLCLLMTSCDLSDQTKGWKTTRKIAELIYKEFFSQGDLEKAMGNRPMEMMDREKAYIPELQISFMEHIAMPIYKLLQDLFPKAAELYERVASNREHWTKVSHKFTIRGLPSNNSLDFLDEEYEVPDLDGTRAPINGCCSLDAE
T1 sequence (Q9Y233 267-1055): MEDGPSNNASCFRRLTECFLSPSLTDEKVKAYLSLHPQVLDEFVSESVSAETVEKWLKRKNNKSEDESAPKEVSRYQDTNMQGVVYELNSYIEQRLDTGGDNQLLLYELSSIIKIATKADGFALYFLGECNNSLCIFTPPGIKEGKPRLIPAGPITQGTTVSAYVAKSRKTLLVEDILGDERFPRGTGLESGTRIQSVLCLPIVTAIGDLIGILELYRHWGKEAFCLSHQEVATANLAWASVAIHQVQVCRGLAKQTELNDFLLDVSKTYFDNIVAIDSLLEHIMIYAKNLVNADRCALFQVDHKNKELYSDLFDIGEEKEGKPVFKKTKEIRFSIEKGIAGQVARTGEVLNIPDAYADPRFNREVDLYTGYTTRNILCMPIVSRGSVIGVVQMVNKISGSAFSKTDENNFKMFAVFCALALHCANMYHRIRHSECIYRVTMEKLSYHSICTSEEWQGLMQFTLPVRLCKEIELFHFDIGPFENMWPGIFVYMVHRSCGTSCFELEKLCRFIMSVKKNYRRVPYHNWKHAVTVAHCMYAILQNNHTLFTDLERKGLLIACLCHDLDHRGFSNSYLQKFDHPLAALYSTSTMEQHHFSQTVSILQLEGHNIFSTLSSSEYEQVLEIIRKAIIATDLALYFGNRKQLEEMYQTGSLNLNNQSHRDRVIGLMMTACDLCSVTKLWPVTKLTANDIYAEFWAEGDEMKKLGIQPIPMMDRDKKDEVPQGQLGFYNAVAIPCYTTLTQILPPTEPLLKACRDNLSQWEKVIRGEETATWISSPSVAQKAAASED
T2 sequence (Q14432 whole entry): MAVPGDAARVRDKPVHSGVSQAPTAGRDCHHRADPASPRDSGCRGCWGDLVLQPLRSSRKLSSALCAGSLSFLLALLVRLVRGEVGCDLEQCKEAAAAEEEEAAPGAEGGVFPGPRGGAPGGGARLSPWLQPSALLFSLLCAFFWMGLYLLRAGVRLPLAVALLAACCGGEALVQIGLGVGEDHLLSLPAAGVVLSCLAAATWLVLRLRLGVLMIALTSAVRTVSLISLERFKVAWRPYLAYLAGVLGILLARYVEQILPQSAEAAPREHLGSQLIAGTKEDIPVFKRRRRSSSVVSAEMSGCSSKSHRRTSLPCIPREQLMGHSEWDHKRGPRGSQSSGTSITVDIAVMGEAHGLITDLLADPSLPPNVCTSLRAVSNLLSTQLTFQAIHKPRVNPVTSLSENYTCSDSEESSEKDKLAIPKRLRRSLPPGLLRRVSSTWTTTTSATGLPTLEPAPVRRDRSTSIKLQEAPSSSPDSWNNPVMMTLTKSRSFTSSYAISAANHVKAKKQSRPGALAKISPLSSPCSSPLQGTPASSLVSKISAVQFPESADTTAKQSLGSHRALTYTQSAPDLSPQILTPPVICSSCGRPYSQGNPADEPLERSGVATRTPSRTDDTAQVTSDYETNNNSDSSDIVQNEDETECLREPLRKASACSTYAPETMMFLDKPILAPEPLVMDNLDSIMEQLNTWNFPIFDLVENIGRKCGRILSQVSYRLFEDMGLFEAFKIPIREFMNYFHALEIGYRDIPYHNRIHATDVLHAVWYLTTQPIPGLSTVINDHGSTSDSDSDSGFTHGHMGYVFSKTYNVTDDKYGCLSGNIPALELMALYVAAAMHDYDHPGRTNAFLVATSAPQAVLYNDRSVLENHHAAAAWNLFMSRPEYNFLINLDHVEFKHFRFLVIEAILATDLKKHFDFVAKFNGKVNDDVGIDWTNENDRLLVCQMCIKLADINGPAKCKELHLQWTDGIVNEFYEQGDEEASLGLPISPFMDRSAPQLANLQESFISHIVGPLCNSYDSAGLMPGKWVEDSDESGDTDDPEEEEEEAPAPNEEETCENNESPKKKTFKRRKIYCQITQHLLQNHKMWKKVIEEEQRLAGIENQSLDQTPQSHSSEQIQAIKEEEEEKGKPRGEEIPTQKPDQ

As for `Cc1nc(C(F)(F)F)cc(C(=O)N2CC[C@@H](C)[C@H](c3cc(C(F)F)nc4ncnn34)C2)c1F` [Compound 394], the values for the Emax in experiment [1] (setting [4]), in experiment [2] and in experiment [3] were 76%, 27% and 99%, respectively. In addition, the IC50 in experiment [1] (setting [5]) was 2.24 µM; in experiment [2], over 10 µM; in experiment [3] (setting [6]) it was 0.00933 µM.

In the case of `Cc1cc(C(=O)N2CC[C@@H](C)[C@@](F)(c3cc(C(F)F)nc4ncnn34)C2)cc(C)n1` [Compound 81], the maximum response (Emax) in experiment [1] (setting [7]) was found to be 1%; in experiment [2], 17%; in experiment [3] (human recombinant PDE2A), 59%; in experiment [3] it was 59%. The IC50 was over 10 µM in experiment [1] (setting [8]), over 10 µM in experiment [2], 7.08 µM in experiment [3] (setting [9]) and 7.08 µM in experiment [3] (setting [6]).

On to `Cc1ccc(C(=O)N2[C@H]3CC[C@H](c4cc(C(F)F)nc5ncnn45)[C@@H]2CC3)s1` [Compound 349], for which the Emax in experiment [1] (setting [4]) was 86%; in experiment [2], 64%; in experiment [3], 102%. Moreover, the IC50 in experiment [1] (setting [5]) is 1.78 µM; in experiment [2], 4.79 µM; in experiment [3] (setting [6]), 0.0224 µM.

With `C[C@@H]1CCN(C(=O)c2cc(C(C)(C)C)cc(C(C)(C)C)c2)C[C@H]1c1cc(C(F)F)nc2ncnn12` [Compound 259], the Emax in experiment [1] (setting [7]) turned out to be 92%; in experiment [1] (setting [4]), 92%; in experiment [2], 82%; in experiment [3], 99%. Further, the IC50 was 1.7 µM in experiment [1] (setting [8]), 1.7 µM in experiment [1] (setting [5]), 3.55 µM in experiment [2] and 0.427 µM in experiment [3] (hPDE2A pIC50).

On to `O=C(c1cccc2ncccc12)N1[C@H]2CC[C@H](c3cc(C(F)F)nc4ncnn34)[C@@H]1CC2` [Compound 315], for which the maximum response (Emax) turned out to be 47% in experiment [1] (setting [4]), 20% in experiment [2] and 98% in experiment [3]. Further, the IC50 is 9.77 µM in experiment [1] (setting [5]), over 10 µM in experiment [2] and 0.112 µM in experiment [3] (setting [6]).

Turning to `O=C(c1ccc2nccnc2c1)N1[C@H]2CC[C@H](c3cc(C(F)F)nc4ncnn34)[C@@H]1CC2` [Compound 381], the Emax came to 88% in experiment [1] (setting [4]), 48% in experiment [2] and 99% in experiment [3]. Moreover, the IC50 in experiment [1] (setting [5]) was 1.32 µM; in experiment [3] (setting [6]), 0.00759 µM.

Turning to `Cc1nc(C(=O)N2CC[C@@H](C)[C@H](c3cc(C(F)F)nc4ncnn34)C2)c(C)o1` [Compound 252], the Emax stood at 66% in experiment [1] (setting [7]), 66% in experiment [1] (setting [4]), 17% in experiment [2] and 96% in experiment [3]. The IC50 was 6.76 µM in experiment [1] (setting [8]), 6.76 µM in experiment [1] (setting [5]), over 10 µM in experiment [2] and 0.708 µM in experiment [3] (setting [6]).

`C[C@@H]1CCN(C(=O)c2ccc(O)nn2)C[C@H]1c1cc(C(F)F)nc2ncnn12` [Compound 236]: the Emax came out at 58% in experiment [1] (setting [7]); 58% in experiment [1] (setting [4]); 18% in experiment [2]; 100% in experiment [3] (human recombinant PDE2A); 100% in experiment [3]. For the same compound, the IC50 in experiment [1] (setting [8]) was 7.76 µM; in experiment [1] (setting [5]), 7.76 µM; in experiment [2], over 10 µM; in experiment [3] (setting [9]) it was 0.209 µM; in experiment [3] (setting [6]), 0.209 µM.

As to `Cc1cc([C@@H]2CN(C(=O)c3ccc4occ(C)c4c3)CC[C@H]2C)n2ncnc2n1` [Compound 5], the Emax in experiment [1] (setting [7]) was found to be 100%; in experiment [2], 97%; in experiment [3], 100%. Also, the IC50 in experiment [1] (setting [8]) is 0.00891 µM; in experiment [2], 0.589 µM; in experiment [3] (hPDE2A pIC50), 0.000955 µM; in experiment [3] (setting [10]) it was 0.000955 µM.

With `O=C(c1ccnc2ccccc12)N1[C@H]2CC[C@H](c3cc(C(F)F)nc4ncnn34)[C@@H]1CC2` [Compound 317], the “hPDE10A2 or rPDE10A2 Emax” value in experiment [1] (setting [11]) is given as 34. Further, the IC50 in experiment [1] (setting [5]) and in experiment [2] was over 10 µM throughout. Further, the figures for the maximal effect (Emax) in experiment [2] and in experiment [3] were 15% and 99%, respectively.

`O=C(c1ccnc2ccccc12)N1[C@H]2CC[C@H](c3cc(C(F)F)nc4ncnn34)[C@@H]1CC2` [Compound 318]: in experiment [1] (setting [11]), the “hPDE10A2 or rPDE10A2 Emax” value is 13 and the “hPDE10A2 or rPDE10A2 pIC50” value is on record as under 5. Also, in experiment [2], the “hPDE3B Emax” value was 11. For the same compound, the “hPDE2A Emax” value in experiment [3] was 89.

With `COc1cc(C(=O)N2[C@H]3CC[C@H](c4cc(C(F)F)nc5ncnn45)[C@@H]2CC3)ccc1Cl` [Compound 336], the Emax in experiment [1] (setting [4]) came to 87%; in experiment [2] it was 78%; in experiment [3], 101%. The IC50 is 1.91 µM in experiment [1] (setting [5]), 3.24 µM in experiment [2] and 0.0186 µM in experiment [3] (setting [6]).

Turning to `C[C@@H]1CCN(C(=O)c2ccncc2N)C[C@H]1c1cc(C(F)F)nc2ncnn12` [Compound 142], the Emax in experiment [1] (setting [7]) came out at 79%; in experiment [2], 35%; in experiment [3] (human recombinant PDE2A), 100%; in experiment [3], 100%. Also, the IC50 in experiment [1] (setting [8]) is 2.57 µM; in experiment [2] it was over 10 µM; in experiment [3] (setting [9]), 0.0302 µM; in experiment [3] (setting [6]) it was 0.0302 µM.

`Cc1cc(C(=O)N2CC[C@H](C)[C@@](F)(c3cc(C(F)F)nc4ncnn34)C2)cc(C2CC2)n1` [Compound 24a]: the Emax in experiment [1] (setting [7]) was 23%; in experiment [2], 31%; in experiment [3] (human recombinant PDE2A), 80%; in experiment [3], 80%. Besides, the IC50 in experiment [1] (setting [8]) is over 10 µM; in experiment [2] it was over 10 µM; in experiment [3] (setting [9]) it was 2.57 µM; in experiment [3] (setting [6]), 2.57 µM.

Regarding `COc1c(C(=O)N2CC[C@@H](C)[C@H](c3cc(C(F)F)nc4ncnn34)C2)cccc1C(F)(F)F` [Compound 247], the maximum response (Emax) in experiment [1] (setting [7]) is 77%; in experiment [1] (setting [4]), 77%; in experiment [2] it was 85%; in experiment [3] it was 98%. The IC50 in experiment [1] (setting [8]) was 2.88 µM; in experiment [1] (setting [5]), 2.88 µM; in experiment [2], 2.04 µM; in experiment [3] (setting [6]), 0.155 µM.

As for `Cc1cnc(C(=O)N2CC[C@@H](C)[C@H](c3cc(C(F)F)nc4ncnn34)C2)cn1` [Compound 232], the maximal response (Emax) worked out at 48% in experiment [1] (setting [7]); 48% in experiment [1] (setting [4]); 31% in experiment [2]; 99% in experiment [3] (human recombinant PDE2A); 99% in experiment [3]. Further, the IC50 in experiment [1] (setting [8]) was over 10 µM; in experiment [1] (setting [5]), over 10 µM; in experiment [2], over 10 µM; in experiment [3] (setting [9]), 0.214 µM; in experiment [3] (setting [6]), 0.214 µM.

As for `Cc1cc(C(=O)N2[C@H]3CC[C@@H]2[C@H](c2cc(C(F)F)nc4ncnn24)CC3)c(F)cn1` [Compound 62], the maximal response (Emax) in experiment [1] (setting [7]) was determined as 36%; in experiment [2] it was 8%; in experiment [3] it was 77%. The IC50 in experiment [1] (setting [8]) was over 10 µM; in experiment [2] it was over 10 µM; in experiment [3] (setting [6]), 3.02 µM.

Consider `C[C@@H]1CCN(C(=O)c2ccc(F)c(C3CC3)c2)C[C@H]1c1cc(C(F)F)nc2ncnn12` [Compound 135], for which the Emax was 97% in experiment [1] (setting [7]), 81% in experiment [2], 100% in experiment [3] (human recombinant PDE2A) and 100% in experiment [3]. The IC50 in experiment [1] (setting [8]) was 0.191 µM; in experiment [2], 2.63 µM; in experiment [3] (setting [9]) it was 0.00331 µM; in experiment [3] (setting [6]) it was 0.00331 µM.

For the compound `Cc1cc([C@@H]2CN(C(=O)c3ccnc(Cl)c3)CC[C@H]2C)n2ncnc2n1` [Compound 15], the Emax in experiment [1] (setting [7]) worked out at 97%; in experiment [2], 54%; in experiment [3], 100%. The IC50 is 0.0724 µM in experiment [1] (setting [8]), 8.13 µM in experiment [2], 0.00324 µM in experiment [3] (hPDE2A pIC50) and 0.00324 µM in experiment [3] (setting [10]).

For `Cc1nc2cccc(C(=O)N3[C@H]4CC[C@H](c5cc(C(F)F)nc6ncnn56)[C@@H]3CC4)c2o1` [Compound 305], the Emax in experiment [1] (setting [4]) is 57%; in experiment [2] it was 7%; in experiment [3], 100%. Further, the values for the IC50 in experiment [1] (setting [5]), in experiment [2] and in experiment [3] (setting [6]) were 7.08 µM, over 10 µM and 0.0871 µM, respectively.

Regarding `C[C@@H]1CCN(C(=O)c2ccncc2F)C[C@H]1c1cc(C(F)F)nc2ncnn12` [Compound 155], the maximal effect (Emax) in experiment [1] (setting [7]) came out at 72%; in experiment [2], 37%; in experiment [3] (human recombinant PDE2A), 98%; in experiment [3] it was 98%. Moreover, the IC50 is 2.95 µM in experiment [1] (setting [8]), over 10 µM in experiment [2], 0.0537 µM in experiment [3] (setting [9]) and 0.0537 µM in experiment [3] (setting [6]).

Take `Cc1cc(C(=O)N2CC[C@@H](C)[C@H](c3cc(C(F)F)nc4ncnn34)C2)cc(C)[n+]1[O-]` [Compound 402]: the Emax in experiment [1] (setting [4]) came to 87%; in experiment [2], 28%; in experiment [3], 100%. The IC50 in experiment [1] (setting [5]) was 1.48 µM; in experiment [2], over 10 µM; in experiment [3] (hPDE2A pIC50) it was 0.0263 µM.

For the origin of these results see US10947242B2, “[1,2,4]triazolo[1,5and#8208;A]pyrimidine compounds as PDE2 inhibitors” (Janssen Pharmaceutica NV, priority 2016, dated 2021).
